According to EP0409499A2, “Pharmaceutical compositions” (BRITISH TECHNOLOGY GROUP LIMITED, priority 1989, dated 1991):

What was measured:
growing rats = assay: Cardioprotective effect against the toxicity of doxorubicin (heart rate and cardiac output in rats); assay type: in vivo; details: relative to saline + saline control
Method: The following compounds were selected to be tested for their cardioprotetive effect against the toxicity of doxorubicin. The compounds tested were: 1,3-bis(3,5-dioxopiperazin-1-yl)-propane 1,2-bis(2-methyl-3,5-dioxopiperazin-1-yl)-ethane 1,2-bis(3,5-dioxopiperazin-1-yl)-butane.
Groups of growing rats were injected intra-peritoneally (i.p.) with 100 mg/kg or 400 mg/kg body weight of the compound. After 1 hour, doxorubicin solution was injected intravenously (i.v.) at a concentration of 4 mg/kg body weight. Other groups of rats were injected with saline (i.p.) followed after 1 hour by saline (i.v.) or with saline (i.p.) followed after 1 hour by doxorubicin solution (i.v.) as controls. The cardiotoxicity of doxorubicin and the protection supplied by the compounds was assessed by measuring the heart rate and cardiac output relative to the saline + saline control. Cardiac output was measured by injecting ^99mTc into the heart and measuring the rate at which the isotope was cleared from the heart. Heart rate was measured in the standard manner.
The results are shown in the Table below from which it will be seen that each of the compounds results in an improvement in cardiac output and heart rate as compared with the depressed values which occur when only doxorubicin is used. TABLE

[1] = result in words, Herman et al, Adv. Pharmacol. Chemother. 1982, 19, 249; cited from earlier work
[2] = result in words, Herman et al, Res. Commun. Chem. Pathol. Pharmacol. 1985, 48, 39; cited from earlier work
[3] = compound 100 mg/kg i.p., 1 hour later doxorubicin 4 mg/kg i.v.
[4] = compound 100 mg/kg i.p., 1 hour later doxorubicin 4 mg/kg i.v., 99mTc clearance from the heart
[5] = saline i.p., 1 hour later doxorubicin 4 mg/kg i.v. alone

Row | SMILES | Relative Heart Rate (growing rats; [3]) | Relative Cardiac Output (growing rats; [4]) | also measured
1 | CCC(CN1CC(=O)NC(=O)C1)N1CC(=O)NC(=O)C1 (racemic) [1,2-bis(3,5-dioxopiperazin-1-yl)-butane, dl-1,2-bis(3,5-dioxopiperazin-1-yl)-butane] | 0.98 ± 0.03 | 0.70 ± 0.05 | Relative Heart Rate (growing rats; compound 400 mg/kg i.p., 1 hour later doxorubicin 4 mg/kg i.v.): 0.92 ± 0.04; Relative Cardiac Output (growing rats; compound 400 mg/kg i.p., 1 hour later doxorubicin 4 mg/kg i.v., 99mTc clearance from the heart): 0.67 ± 0.05
2 | CC1C(=O)NC(=O)CN1CCN1CC(=O)NC(=O)C1C (stereo not drawn) [1,2-bis(2-methyl-3,5-dioxopiperazin-1-yl)-ethane] | 0.99 ± 0.03 | 0.62 ± 0.05 | –
3 | O=C1CN(CCCN2CC(=O)NC(=O)C2)CC(=O)N1 [1,3-bis(3,5-dioxopiperazin-1-yl)-propane] | 0.81 ± 0.12 | 0.56 ± 0.06 | –
4 | CC(CN1CC(=O)NC(=O)C1)N1CC(=O)NC(=O)C1 (stereo not drawn) [ICRF 159] | – | – | reducing high dose daunorubicin toxicity versus doxorubicin toxicity [1]: consistently more effective in reducing high dose daunorubicin toxicity than doxorubicin toxicity
5 | O=C1CN(CCN2CC(=O)N(CN3CCOCC3)C(=O)C2)CC(=O)N1CN1CCOCC1 [bimolane] | – | – | protective effect against acute daunorubicin toxicity [2]: give protection against the lethal effects of daunorubicin
6 | COc1cccc2c1C(=O)c1c(O)c3c(c(O)c1C2=O)C[C@@](O)(C(=O)CO)C[C@@H]3O[C@H]1C[C@H](N)[C@H](O)[C@H](C)O1 [doxorubicin, reference compound] | – | – | Relative Cardiac Output (growing rats; [5]): 0.41 ± 0.04; Relative Heart Rate (growing rats; [5]): 0.65 ± 0.19
